Test results: patent US20260306527A1, “PRMT INHIBITOR COMPOUNDS AND THE USES THEREOF” (Purdue Research Foundation, priority 2023, published 2026)
Where two headings read alike, the source gives them in different places.

Columns and labels:
Assay type in all cases: biochemical
[1] = biological target: T1, PRMT1 (Homo sapiens, UniProt Q99873); assay: SAHH-coupled fluorescence assay, inhibition of PRMT1; conditions: for IC50: read-out: IC50[μM] | PRMT1
T1 construct: made in house
Outline: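 PRMT1 (0.1 μM) was run with 10 μM AdoMet, 5 μM SAHH and 10 μM ThioGlo4 in 2.5 mM HEPES pH 7.0, 25 mM NaCl, 25 μM EDTA, 50 μM TCEP and 0.01% Triton X-100. Fluorescence (ex 400/em 465 nm) was monitored for 15 min. Assays were done in duplicate.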

[2] = system: PRMT3; assay: SAHH-coupled fluorescence assay, inhibition of PRMT3
Procedure: A fluorescence-based SAHH-coupled assay was applied to study the inhibition activity of all synthesized compounds on PRMT 1 and 3.
(§1) The PRMT3 methylation assay was performed under the following conditions in a final well volume of 100 μL: 20 mM Tris (pH=7.5), 0.01% Triton X-100, 5 μM SAHH, 0.25 μM PRMT3, 30 μM AdoMet, and 15 μM ThioGlo4. […] Fluorescence was monitored on a BMG CLARIOstar microplate reader with excitation 380 nm and emission 505 nm. Data were processed by using GraphPad Prism software 8.0. All experiments were performed in duplicate.
(§2) Next, the inhibition activity of the library was investigated for five PRMT members from type I PRMTs.
as §1, with “8.0.” for “8.0. All experiments were performed in duplicate.”

[3] = biological target: T2, PRMT4 (Homo sapiens, UniProt Q86X55); assay: radioactive assay (Reaction Biology Corp.), inhibition of PRMT4
T2 sequence (Q86X55 1-608): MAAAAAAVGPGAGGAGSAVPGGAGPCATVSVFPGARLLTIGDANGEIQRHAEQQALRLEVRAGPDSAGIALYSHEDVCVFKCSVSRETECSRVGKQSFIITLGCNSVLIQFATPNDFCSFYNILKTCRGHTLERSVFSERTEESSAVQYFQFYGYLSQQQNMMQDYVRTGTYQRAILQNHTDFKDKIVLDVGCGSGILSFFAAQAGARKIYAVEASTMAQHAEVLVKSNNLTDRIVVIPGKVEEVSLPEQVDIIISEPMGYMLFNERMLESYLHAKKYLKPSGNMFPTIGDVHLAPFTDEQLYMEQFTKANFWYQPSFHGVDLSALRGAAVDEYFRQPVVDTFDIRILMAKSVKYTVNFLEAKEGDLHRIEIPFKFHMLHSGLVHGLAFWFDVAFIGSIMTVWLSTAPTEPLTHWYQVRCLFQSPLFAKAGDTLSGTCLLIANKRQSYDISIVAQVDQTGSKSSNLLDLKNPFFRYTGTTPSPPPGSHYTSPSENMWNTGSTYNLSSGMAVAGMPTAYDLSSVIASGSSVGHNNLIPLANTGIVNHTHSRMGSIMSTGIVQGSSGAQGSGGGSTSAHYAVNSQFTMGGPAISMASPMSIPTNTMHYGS
Procedure: as §2
(§3) The PRMT 4, 6 and 8 methylation assays were performed by Reaction Biology corp.

[4] = biological target: PRMT6 (Homo sapiens, UniProt Q96LA8); assay: radioactive assay (Reaction Biology Corp.), inhibition of PRMT6
Procedure: as §2, §3

[5] = biological target: PRMT8 (Homo sapiens, UniProt Q9NR22); assay: radioactive assay (Reaction Biology Corp.), inhibition of PRMT8
Procedure: as §2, §3

[6] = biological target: PRMT3 (Homo sapiens, UniProt O60678); assay: SAHH-coupled fluorescence assay, inhibition of PRMT3; set-up: PRMT3 (residues 211-531) was cloned into the pET28a-MHL expression vector; tag of the pET28a-MHL vector (not described); made in house; host or cells: Escherichia coli BL21(DE3)
Outline: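 Coupled SAHH/ThioGlo4 fluorescence read-out (ex 380 nm, em 505 nm) of PRMT3 (0.25 μM) methylation with 30 μM AdoMet and 5 μM SAHH. Buffer was 20 mM Tris pH 7.5 with 0.01% Triton X-100. Run in duplicate.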

Chain of PRMT3 (Homo sapiens, UniProt O60678) (O60678 211-531): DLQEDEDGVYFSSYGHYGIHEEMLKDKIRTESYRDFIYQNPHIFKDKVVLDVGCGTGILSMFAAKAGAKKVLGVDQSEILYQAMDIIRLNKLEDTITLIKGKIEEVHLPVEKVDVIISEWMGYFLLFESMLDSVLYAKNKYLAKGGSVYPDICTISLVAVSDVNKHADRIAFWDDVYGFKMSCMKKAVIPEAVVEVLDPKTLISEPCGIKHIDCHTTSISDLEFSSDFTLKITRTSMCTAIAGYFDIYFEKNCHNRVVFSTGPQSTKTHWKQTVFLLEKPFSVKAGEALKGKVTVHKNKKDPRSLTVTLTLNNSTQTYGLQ
Chain of PRMT6 (Q96LA8 whole entry, species assumed): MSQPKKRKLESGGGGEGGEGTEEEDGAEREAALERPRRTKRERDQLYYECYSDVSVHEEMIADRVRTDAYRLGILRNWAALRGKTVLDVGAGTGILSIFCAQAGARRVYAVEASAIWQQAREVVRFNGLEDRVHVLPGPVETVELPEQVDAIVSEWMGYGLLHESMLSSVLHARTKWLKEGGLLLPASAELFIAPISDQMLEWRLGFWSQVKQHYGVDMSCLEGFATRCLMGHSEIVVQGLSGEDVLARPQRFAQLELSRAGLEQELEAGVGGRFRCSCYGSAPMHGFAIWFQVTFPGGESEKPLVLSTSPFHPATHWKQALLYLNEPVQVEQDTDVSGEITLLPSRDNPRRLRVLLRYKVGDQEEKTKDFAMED
T1 sequence (Q99873 whole entry, species assumed): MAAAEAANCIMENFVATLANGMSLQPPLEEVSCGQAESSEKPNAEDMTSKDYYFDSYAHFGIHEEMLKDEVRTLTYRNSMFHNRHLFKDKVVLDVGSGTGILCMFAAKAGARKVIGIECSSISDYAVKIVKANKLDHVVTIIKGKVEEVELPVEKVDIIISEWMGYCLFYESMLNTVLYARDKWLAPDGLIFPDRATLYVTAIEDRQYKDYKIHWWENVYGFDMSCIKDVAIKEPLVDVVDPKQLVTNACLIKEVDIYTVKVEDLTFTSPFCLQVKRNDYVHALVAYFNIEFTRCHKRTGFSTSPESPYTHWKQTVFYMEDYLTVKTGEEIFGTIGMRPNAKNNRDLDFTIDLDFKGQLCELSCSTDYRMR
Chain of PRMT8 (Q9NR22 whole entry, species assumed): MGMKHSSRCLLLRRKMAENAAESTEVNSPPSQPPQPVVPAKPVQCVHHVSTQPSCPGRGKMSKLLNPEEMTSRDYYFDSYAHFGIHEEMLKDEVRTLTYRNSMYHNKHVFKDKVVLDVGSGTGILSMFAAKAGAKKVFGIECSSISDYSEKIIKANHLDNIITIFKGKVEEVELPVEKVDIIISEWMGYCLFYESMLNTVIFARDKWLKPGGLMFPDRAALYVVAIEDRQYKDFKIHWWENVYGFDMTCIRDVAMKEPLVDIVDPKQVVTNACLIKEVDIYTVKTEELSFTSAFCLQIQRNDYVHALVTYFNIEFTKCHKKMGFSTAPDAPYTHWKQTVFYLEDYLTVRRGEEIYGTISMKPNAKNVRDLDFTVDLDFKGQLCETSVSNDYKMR

inhibition at 10 µM [1] [%]	IC50 [1] [µM]	IC50 ([2]; read-out: IC50[μM] | PRMT3) [µM]	inhibition at 10 µM [3] [%]	inhibition at 10 µM [4] [%]	inhibition at 10 µM [5] [%]	inhibition at 10 µM [6] [%]	IC50 ([2]; read-out: IC50 [µM] | PRMT3) [µM]	fold reduction of PRMT3 inhibition vs 1i ([6]; vs 1i) [fold]	fold decrease in PRMT3 inhibition ([6]; 1d (2C-atom linker) vs II710) [fold]	PRMT6 inhibition ([4]; 10 μM)	fold reduction of PRMT3 inhibition vs YD1113 ([6]; vs YD1113) [fold]	Structure (SMILES)
95	0.23 ± 0.013	8.6 ± 0.58	100	99	98	47	–	–	–	–	–	N=C(NCCCSC[C@H]1O[C@@H](n2cnc3c(N)ncnc32)[C@H](O)[C@@H]1O)Nc1cccc(-c2ccc(O)cc2)c1 [Compound 6e]
102	0.45 ± 0.11	25 ± 5	100	96	95	5	–	–	–	–	–	N=C(NCCCSC[C@H]1O[C@@H](n2cnc3c(N)ncnc32)[C@H](O)[C@@H]1O)Nc1cccc(-c2cncnc2)c1 [Compound 6o]
7	–	–	67	2	-1	30	22 ± 2.9	10	–	–	–	Nc1ncnc2c1ncn2[C@@H]1O[C@H](CSCCNC(=O)Nc2ccc(Cl)cc2)[C@@H](O)[C@H]1O [Compound 7k, 1-(2-((((2S,3S,4R,5R)-5-(6-amino-9H-purin-9-yl)-3,4-dihydroxytetrahydrofuran-2-yl)methyl)thio)ethyl)-3-(4-chlorophenyl)urea]
97	0.33 ± 0.072	6.6 ± 2.8	100	96	99	50	–	–	–	–	–	N=C(NCCCSC[C@H]1O[C@@H](n2cnc3c(N)ncnc32)[C@H](O)[C@@H]1O)Nc1cccc(-c2ccc(F)cc2F)c1 [Compound 6k]
9	–	–	84	28	12	86	1.9 ± 0.12	–	–	inactive to PRMT6	4	Nc1ncnc2c1ncn2[C@@H]1O[C@H](CSCCNC(=O)Nc2ccccc2)[C@@H](O)[C@H]1O [Compound 7f, 1-(2-((((2S,3S,4R,5R)-5-(6-amino-9H-purin-9-yl)-3,4-dihydroxytetrahydrofuran-2-yl)methyl)thio)ethyl)-3-phenylurea]
88	0.9 ± 0.17	14 ± 3.1	100	93	96	22	–	–	–	–	–	N=C(NCCCSC[C@H]1O[C@@H](n2cnc3c(N)ncnc32)[C@H](O)[C@@H]1O)Nc1cccc(-c2cccnc2)c1 [Compound 6m]

Further lines, the molecule ahead of its results:

Structure (SMILES)	inhibition at 10 µM [1] [%]	IC50 [1] [µM]	IC50 ([2]; read-out: IC50[μM] | PRMT3) [µM]	inhibition at 10 µM [3] [%]	inhibition at 10 µM [4] [%]	inhibition at 10 µM [5] [%]	inhibition at 10 µM [6] [%]	IC50 ([2]; read-out: IC50 [µM] | PRMT3) [µM]	fold reduction of PRMT3 inhibition vs 1i ([6]; vs 1i) [fold]	fold decrease in PRMT3 inhibition ([6]; 1d (2C-atom linker) vs II710) [fold]	PRMT6 inhibition ([4]; 10 μM)	fold reduction of PRMT3 inhibition vs YD1113 ([6]; vs YD1113) [fold]
N=C(NCCSC[C@H]1O[C@@H](n2cnc3c(N)ncnc32)[C@H](O)[C@@H]1O)Nc1cccc(I)c1 [Compound 5c]	95	0.13 ± 0.006	8.68 ± 2.9	100	98	99	38	–	–	–	–	–
N=C(NCCSC[C@H]1O[C@@H](n2cnc3c(N)ncnc32)[C@H](O)[C@@H]1O)NCc1ccccc1 [Compound 5a]	86	1 ± 0.065	–	99	93	76	57	33 ± 4.3	–	3	–	–
N=C(NCCCSC[C@H]1O[C@@H](n2cnc3c(N)ncnc32)[C@H](O)[C@@H]1O)Nc1ccccc1 [Compound 5d]	94	0.17 ± 0.011	7.2 ± 0.61	99	99	98	54	–	–	–	–	–
